Results as given in patent US20230235378A1, “LZHEIMER'S DISEASE-SPECIFIC ALTERATIONS OF PROTEIN KINASE C EPSILON (PKC-EPSILON PROTEIN LEVELS” (WEST VIRGINIA UNIVERSITY BOARD OF GOVERNORS ON BEHALF OF …, priority 2010, published 2023).
Where two headings read alike, the source gives them in different places.

What was measured:
PKC [1] = assay: PKC in perforated fibers of AD transgenic mice (FIG. 8); assay type: in vivo
rats = settings: cited from earlier work
α-secretase = settings: human fibroblasts, cited from earlier work
Aß [2] = assay: Aß production in N2a neuroblastoma cells transfected with human APPSwe/PS1D (Aß 1-42 ELISA); assay type: cell-based, mouse; settings: for levels of both intracellular and secreted Aß: 24 h incubation, various concentrations
Experimental: (§1) Aß Measurement and Cell Viability Assay. Aß was measured using an Aß 1-42 human fluorimetric ELISA kit (Invitrogen) according to the manufacturer's instructions. Results were measured in a Biotek Synergy HT microplate reader. AlamarBlue and CyQuant NF (Invitrogen) according to the manufacturer's instructions.
To measure the effects of PKC activation on Aß production, we used mouse neuro2a (N2a) neuroblastoma cells transfected with human APPSwe/PS1D, which produce large quantities of Aβ. Petanceska et al., J. Neurochem. 1996; 74: 1878-84. […] With bryostatin, which activates PKC by binding to the diacylglycerol-binding site, the inhibition was biphasic, with concentrations of 20 nM or higher producing no net effect. This may be explained by the ability of this class of PKC activators to downregulate PKC when used at high concentrations.

PKC [3] = assay: PKC activity in cultured rat hippocampal H19-7/IGF-IR cells; assay type: cell-based
Experimental: Cell Culture. Rat hippocampal H19-7/IGF-IR cells (ATCC, Manassas, Va.) were plated onto poly-L-lysine coated plates and grown at 35° C. in DMEM/10% FCS for several days until about 50% coverage was obtained. The cells were then induced to differentiate into a neuronal phenotype by replacing the medium with 5 ml N2 medium containing 10 ng/ml basic fibroblast growth factor at 39° C. and grown in T-75 flasks at 37° C. Human SH-SY5Y neuroblastoma cells (ATCC) were cultured in 45% F 12K/45% MEM/10% FCS. Mouse N2A neuroblastoma cells were cultured in DMEM/10% FCS without glutamine. Rat hippocampal neurons from 18-day-old embryonic
(§2) Protein Kinase C Assay. Rat hippocampal cells were cultured and scraped in 0.2 ml homogenization buffer (20 mM Tris-HCl, pH 7.4, 50 mM NaF, 1 μg/ml leupeptin, and 0.1 mM PMSF) and homogenized by sonication in a Marsonix micro-probe sonicator (5 sec, 10 W). To measure PKC, 10 μl of cell homogenate or purified PKC isozyme (purchased from Calbiochem) was incubated for 15 min at 37° C. in the presence of 10 μM histones, 4.89 mM CaCl2, 1.2 μg/μl phosphatidyl-L-serine, 0.18 μg/μl 1,2-dioctanoyl-sn-glycerol, 10 mM MgCl2, 20 mM HEPES (pH 7.4), 0.8 mM EDTA, 4 mM EGTA, 4% glycerol, 8 μg/ml aprotinin, 8 μg/ml leupeptin, and 2 mM benzamidine. 0.5 μCi [γ-32P]ATP was added and 32P-phosphoprotein formation was measured by adsorption onto phosphocellulose as described previously. Nelson and Alkon, J. Neurochemistry. 1995; 65: 2350-57. For measurements of activation by BR-101 (DCP-LA) and similar compounds, PKC activity was measured in the absence of diacylglycerol and phosphatidylserine, as described by Kanno et al., and PKC δ, ε, η, and were measured in the absence of added EGTA and CaCl2, as described by Kanno et al., J. Lipid Res. 2006; 47: 1146-50. Low concentrations of Ca2+ are used because high Ca2+ interacts with the PKC phosphatidylserine binding site and prevents activation. For measurements of bryostatin activation, 1,2-diacylglycerol was omitted unless otherwise stated.
PKC activators that bind to the diacylglycerol binding site, including bryostatin, gnidimacrin, and phorbol esters, produce a transient activation of PKC activity, followed by a prolonged downregulation. Nelson et al., Trends in Biochem. Sci. 2009; 34: 136-45. This was confirmed in cultured rat hippocampal cells. Incubation of rat 1119-7/IGF-IR cells with (0.04 nM and 0.2 nM) bryostatin produced a 2-fold activation that lasted 30 min, followed by a 20% downregulation that returned to baseline by 24 h (data not shown). […] This sustained activation was only observed in primary neurons.

[4] = system: Endothelin-converting enzyme (ECE); assay: ECE assay in neuroblastoma cells (fluorimetric, McaBK2); assay type: cell-based, human; settings: bryostatin 0.27 nM, BR-101 1 μM, BR-111 1
Experimental: ECE Assay. SH-5757 neuroblastoma cells were incubated with bryostatin (0.27 nM), BR-101 (DCP-LA) (1 μM), and BR-111 (DHA-CP6) (1 Endothelin-converting enzyme (ECE) was measured fluorimetrically using the method of Johnson and Ahn, Anal. Biochem. 2000; 286: 112-118. A sample of cell homogenate (20 μl) was incubated in 50 mM MES-KOH, pH 6.0, 0.01% C 12E10 (polyoxyethylene-10-lauryl ether), and 15 μM McaBK2 (7-Methoxycoumarin-4-acetyl [Ala7-(2,4-Dinitrophenyl)Lys9]-bradykinin trifluoroacetate salt) (Sigma-Aldrich). After 60 min at 37° C., the reaction was quenched by adding trifluoroacetic acid to 0.5%. The sample was diluted to 1.4 ml with water and the fluorescence was measured at ex=334 nm, em=398 nm.

TACE = TACE assay in cell homogenates of neuronal cells; assay type: cell-based; settings: human SH-SY5Y, N2a mouse neuroblastoma cells, primary neurons from rat hippocampus
Experimental: TACE Assay. TACE was measured by incubating 5 μl cell homogenate, 3 μl buffer (50 mM Tris-HCl 7.4 plus 25 mM NaCl plus 4% glycerol), and 1 μl of 100 μM TACE substrate IV (Aβz-LAQAVRSSSR-DPa) (Calbiochem) for 20 min at 37° in 1.5-ml polypropylene centrifuge tubes (Jin et al., Anal. Biochem. 2002; 302: 269-75). The reaction was stopped by cooling to 4° C. The samples were diluted to 1 ml and the fluorescence was rapidly measured (ex=320 nm, em=420 nm) in a Spex Fluorolog 2 spectrofluorometer.
Buxbaum et al., J. Biol. Chem. 1998; 273: 27765-67; Etcheberrigaray et al., Proc. Natl. Acad. Sci. USA. 2006: 103:8215-20. However, many of these earlier studies were carried out in fibroblasts and other non-neuronal cell types, which appear to respond differently to PKC activators than neurons.

[5] = Cell viability assay (alamar Blue and CyQuant staining); assay type: cell-based
Experimental: as §1

purified PKC = target: T1, purified PKC (Homo sapiens, UniProt Q02156); assay: PKC isozyme specificity: purified PKC preincubated with compound, activity measured radiometrically; assay type: biochemical
T1 construct: purchased Calbiochem
T1 sequence (Q02156 1-737): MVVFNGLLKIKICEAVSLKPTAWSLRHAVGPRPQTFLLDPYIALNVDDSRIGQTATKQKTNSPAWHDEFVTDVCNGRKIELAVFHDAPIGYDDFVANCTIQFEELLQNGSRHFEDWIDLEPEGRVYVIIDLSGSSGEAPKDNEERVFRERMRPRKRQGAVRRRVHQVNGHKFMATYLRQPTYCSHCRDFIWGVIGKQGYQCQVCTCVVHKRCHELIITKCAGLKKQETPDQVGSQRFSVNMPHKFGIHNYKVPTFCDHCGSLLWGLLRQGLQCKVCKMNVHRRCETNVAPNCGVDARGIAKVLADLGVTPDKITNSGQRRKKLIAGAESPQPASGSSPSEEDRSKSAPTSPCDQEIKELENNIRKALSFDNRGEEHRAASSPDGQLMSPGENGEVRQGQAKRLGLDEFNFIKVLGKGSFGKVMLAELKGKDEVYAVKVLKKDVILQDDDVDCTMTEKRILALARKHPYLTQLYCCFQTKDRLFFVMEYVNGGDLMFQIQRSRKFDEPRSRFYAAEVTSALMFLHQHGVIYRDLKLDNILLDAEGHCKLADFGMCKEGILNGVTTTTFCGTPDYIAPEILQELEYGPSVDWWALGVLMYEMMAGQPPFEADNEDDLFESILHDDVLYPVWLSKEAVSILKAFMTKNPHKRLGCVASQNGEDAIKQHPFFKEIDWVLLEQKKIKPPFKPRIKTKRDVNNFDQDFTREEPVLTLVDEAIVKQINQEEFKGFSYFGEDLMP
Experimental: as §2
To determine their PKC isozyme specificity, the new compounds were preincubated with purified PKC for five minutes and the PKC activity was measured radiometrically.

Aß [6] = assay: Degradation of exogenous monomeric Aβ-42 in SH-SY5Y cells; assay type: cell-based, human; settings: 0.01 to 10 μM; 100 nM exogenous monomeric Aβ-42; 24 h
Experimental: as §1
To determine whether the reduced levels of Aß caused by PKC activators were due to inhibition of Aß synthesis or activation of Aß degradation, we applied BR-111 (DHA-CP6) (0.01 to 10 μM) and low concentrations (100 nM) of exogenous monomeric Aβ-42 to cultured SH-SY5Y cells. This concentration of Aß is too low to produce measurable toxicity or cell death. Since SH-SY5Y cells produce only trace amounts of Aβ, this experiment was an effective test of the ability of PKC activators to enhance Aß degradation. By 24 h, most of the Aß had been taken up by the cells and the concentration of Aß in the culture medium was undetectable.

Row | Compound | loss of PKC in perforated fibers (PKC [1]) | rate of learning (rats) | increase of initial rate of α-secretase activity (α-secretase; 10 μM) [fold] | increase of initial rate of α-secretase activity (α-secretase; 100 μM) [fold] | levels of both intracellular and secreted Aß (Aß [2]) | downregulation of PKC following activation (PKC [3]; 0.04 nM and 0.2 nM) [%] | time of return of PKC to baseline (PKC [3]; 0.04 nM and 0.2 nM) [h] | activation of PKC activity (PKC [3]; 0.04 nM and 0.2 nM, data not shown) [fold] | downregulation of PKC activity (PKC [3]; 8 h, data not shown) | change in ECE activity [4] | change in TACE activity (TACE) | concentration dependence of Aß inhibition (Aß [2]; concentrations up to 10 to 100 μM, no evidence of downregulation at higher concentrations) | effect on cell survival or proliferation [5] | concentration needed to activate PKC, relative to BR-101 (DCP-LA) (purified PKC; compared with BR-101 (DCP-LA)) | activation of purified PKC (purified PKC; used as methyl esters) | reduction of cellular levels of Aß (Aß [6])
1 | CCC/C=C/C=C/C(=O)O[C@H]1/C(=C/C(=O)OC)C[C@H]2C[C@H]([C@@H](C)O)OC(=O)C[C@H](O)C[C@@H]3C[C@H](OC(C)=O)C(C)(C)[C@](O)(C[C@@H]4C/C(=C/C(=O)OC)C[C@H](/C=C/C(C)(C)[C@]1(O)O2)O4)O3 [bryostatin] | prevents the loss of PKC in perforated fibers | dramatically increase | 16 | 132 | markedly reduced | 20 | ≤ 24 | 2 | at or near the baseline | sustained increase | only produced small increases | – | – | – | – | –
2 | CCC1CC1CC1CC1CC1CC1CC1CC1CC1CC1CC1CC1CCC(=O)OC (stereo not shown) [BR-111, methyl-3-(2-((2-((2-((2-((2-((2-ethylcyclopropyl)methyl)cyclopropyl)methyl)cyclopropyl)methyl)-cyclopropyl)methyl)cyclopropyl)methyl)cyclopropyl)propanoate] | – | – | – | – | markedly reduced | – | – | – | – | sustained increase | only produced small increases | monotonically increasing inhibition | no effect | approx. 100 times lower | activated purified PKC to a similar extent | 45-63%
